The structures appear in SMILES notation.

The values that follow come from patent US20210163404A1, “NOVEL UREA COMPOUNDS AND BIOISOSTERES THEREOF AND THEIR USE FOR TREATING INFLAMMATION AND INFLAMMATION-RELATED PATHOLOGIES” (UNIVERSITÉ LAVAL, priority 2017, published 2021).

Data set [1] relates to HDFn neonatal dermal fibroblast cell line. Description: Antiproliferative activity (NCI procedure, sulforhodamine B), HDFn. The class given is cell-based, human. The settings on record: Homo sapiens, Fibroblast, unit inferred, tested 781 nM to 100 μM, 48 h. As to the method: (§1) The antiproliferative activity of compounds 3a-b, 4a-e, 5a-e and 6a-e was subsequently evaluated using the human HT-29 colon adenocarcinoma and the A549 adenocarcinoma alveolar epithelial cancer cell lines, the HaCaT spontaneously transformed aneuploid immortal keratinocyte cell line and the HDFn neonatal dermal fibroblast cell line (Table 2). Cell growth inhibition was assessed according to the NCI/NIH Developmental Therapeutics Program.
(§2) The antiproliferative activity assay of all compounds was assessed using the procedure recommended by the National Cancer Institute for its drug screening program with minor modifications. Briefly, 96-well microtiter plates were seeded with 75 μL of a suspension of either HaCaT (5×10^3), HT-29 (3.0×10^3), A549 (3.0×10^3) or HDFn (3×10^3) cells per well in DMEM and incubated for 24 h at 37° C. in a moisture-saturated atmosphere containing 5% CO2. Compounds freshly solubilized in DMSO (40 mM) were diluted in fresh DMEM, and 75 μL aliquots containing serially diluted concentrations of the compound were added. Final compound concentrations ranged from 100 μM to 781 nM. DMSO was maintained at a concentration of <0.5% (v/v) to avoid any related cytotoxicity. Plates were subsequently incubated for 48 h. Cell growth was then stopped by the addition of cold trichloroacetic acid to the wells (10% w/v, final concentration), followed by a 1 h incubation period at 4° C. The plates were washed 4-times with water. A sulforhodamine B solution (75 μL; 0.1% w/v) in acetic acid (1%) was subsequently added to each well and the plates incubated over a 15 min period while at room temperature. After staining, any unbound dye was removed by washing 4-times with an acetic acid solution (1%). Bound dye was solubilized in 20 mM Tris base and the absorbance was measured at an optimal wavelength (530-568 nm) using a μQuant® Universal microplate spectrophotometer (BioTek, Winooski, Vt.). The measurements for treated cells were compared with measurements from control cell plates fixed on treatment day and the percentage of cell growth inhibition was calculated for each drug. The experiments were performed at least twice in triplicate. The assays were considered valid when the coefficient of variation for a given set of conditions and within the same experiment was <10%.

For data set [2], the system named is A549 adenocarcinoma alveolar epithelial cancer cells. As to the kind of experiment: Antiproliferative activity (NCI procedure, sulforhodamine B), A549. The class given is cell-based, human. Conditions: Homo sapiens, A549, unit inferred, tested 781 nM to 100 μM, 48 h. As to the method:
as §1, §2

Data set [3] has as its system HaCaT keratinocyte cell line. Description: Antiproliferative activity (NCI procedure, sulforhodamine B), HaCaT. The settings on record: Homo sapiens, HaCaT, unit inferred, tested 781 nM to 100 μM, 48 h. Type of data set: cell-based, human. The procedure:
as §1, §2

Data set [4] relates to HT-29 colon adenocarcinoma cells. Description: Antiproliferative activity (NCI procedure, sulforhodamine B), HT-29. Type of data set: cell-based, human. Conditions: Homo sapiens, HT-29, unit inferred, tested 781 nM to 100 μM, 48 h. As to the method: as §1, §2
In another data set the test system is HaCaT cells. As to the kind of experiment: Cell cycle analysis by flow cytometry. Type of data set: cell-based, human. The settings on record: 10 μM, 24 h. The procedure:
The effect of compounds 3a-b, 4e, 5b-c, 6a and 6e on cell cycle progression was subsequently assessed using a flow cytometer in accordance with established experimental protocols to evaluate any potential drug toxicity at specific phases of the cell cycle (Table 3).
HaCaT cells (2.5×10^5) were incubated with compounds 3a-b, 4e, 5b-c, 6a and 6e and curcumin (10 μM) over a period of 24 h. The cells were subsequently trypsinized, washed with PBS, resuspended in PBS (250 μL), fixed by the addition of ice-cold EtOH (750 μL) under agitation and stored at −20° C. until analysis. Prior to FACS analysis, cells were washed with PBS and resuspended in PBS (500 μL) containing 4′,6′-diamidino-2-phenylindole (DAPI) (2 μg/mL). The cell cycle was analyzed using an LSR II flow cytometer (BD Biosciences, Franklin Lakes, N.J.).
(Flow cytometry measures light scatter and fluorescence of single cells or particles in a stream.)

Usually melting point stands for the temperature, or range, at which the solid turns liquid. By IC50 is commonly meant the point on the concentration scale where inhibition reaches its midpoint. High values mean a need for much substance, low ones inhibition by little substance. `S=C(NCC1CCC1)Nc1ccc(C2CCCCC2)cc1` [Compound 88]: the melting point lay within 144 to 152 °C. The same molecule gave an IC50 in data set [1] (Table 8) of 15.7 µM. In data set [2] (Table 8), this molecule registered an IC50 of 15.3 µM. The same molecule registered an IC50 in data set [3] (Table 8) of 32.5 µM. Half-maximal inhibition in data set [4] (Table 8) (IC50) was put at 20.4 µM.
`CCNC(=O)Nc1ccc(C(C)(C)C)cc1` [tBEU, reference compound]: in the data set with HaCaT cells, the “Cell cycle progression G0-G1” value was found to be 55.5, the “Cell cycle progression G2-M” value is recorded as 19.1 and the “Cell cycle progression S” value was found to be 25.3.
`S=C(Nc1ccc(C2CCCCC2)cc1)NC1CCCC1` [Compound 89]: the melting point fell in the range of 146 to 152 °C. This molecule also registered a concentration for half-maximal inhibition (IC50) in data set [1] (Table 8) of 14.6 µM. In data set [2] (Table 8), this molecule came in with a half-maximal inhibitory concentration (IC50) of 20 µM. In data set [3] (Table 8), this molecule displayed a 50% inhibitory concentration (IC50) of 34.9 µM. The IC50 in data set [4] (Table 8) came to 21.6 µM.
In turn, `O=C(NCC1CCC1)Nc1cccc(C2CCCCC2)c1` [Compound 68] gave a melting point of 115 to 120 °C. The molecule further showed an IC50 in data set [1] (Table 6) of 12 µM. In data set [2] (Table 6), this molecule gave an IC50 of 8 µM. The same molecule registered an IC50 in data set [3] (Table 6) of 3.7 µM. Moreover, in data set [4] (Table 6), the IC50 was 5.6 µM.
In turn, `CCCNC(=O)Nc1cccc(I)c1` [Compound 6] registered a melting point of 132 to 136 °C. The molecule also displayed an IC50 in data set [1] (Table 5) of 44.2 µM. Besides, half-maximal inhibition in data set [2] (Table 5) (IC50) required 80 µM. The molecule also came in with an IC50 in data set [3] (Table 5) of 99.7 µM. The molecule also displayed an IC50 in data set [4] (Table 5) of 87.9 µM.
In turn, `CC(C)(C)c1cccc(NC(=S)NCC2CCC2)c1` [Compound 90] yielded a melting point of 105 to 111 °C. Moreover, in data set [1] (Table 8), it took 18.2 µM to reach half-maximal inhibition (IC50). In data set [2] (Table 8), this molecule displayed a 50% inhibitory concentration (IC50) of 17.5 µM. In data set [3] (Table 8), this molecule gave a concentration for half-maximal inhibition (IC50) of 34.3 µM. In addition, half-maximal inhibition in data set [4] (Table 8) (IC50) required 20.2 µM.
The matching figures for `S=C(NCC1CCC1)Nc1cccc(C2CCCCC2)c1` [Compound 106]: 102 to 110 °C, 4.9 µM, 17 µM, 14.9 µM and 13.2 µM.
In the case of `CCNC(=O)Nc1cccc(C2CCCCC2)c1` [Compound 66], the melting point was 141 to 144 °C. Moreover, in data set [1] (Table 6), the IC50 stood at 31 µM. For the same molecule, in data set [2] (Table 6), 58 µM corresponded to half-maximal inhibition (IC50). This molecule also registered a half-inhibitory concentration (IC50) in data set [3] (Table 6) of 37 µM. In data set [4] (Table 6), 31 µM corresponded to half-maximal inhibition (IC50).
With `S=C(Nc1cccc(C2CCCCC2)c1)NC1CC1` [Compound 105], the melting point was 122 to 128 °C. This molecule yielded a half-inhibitory concentration (IC50) in data set [1] (Table 8) of 14.7 µM. In addition, in data set [2] (Table 8), the half-maximal inhibitory concentration (IC50) worked out at 15.9 µM. In data set [3] (Table 8), the IC50 was 16.3 µM. In data set [4] (Table 8), this molecule showed an IC50 of 12.7 µM.
`CC(C)NC(=O)Nc1ccc(C(C)(C)C)cc1` [Compound 7] registered a melting point of 152 to 155 °C. In data set [1] (Table 5), this molecule showed an IC50 of 57.4 µM. In addition, the IC50 in data set [2] (Table 5) stood at 83.2 µM. In addition, in data set [3] (Table 5), the 50% inhibitory concentration (IC50) was above 100 µM. In addition, in data set [4] (Table 5), the IC50 stood at 74.2 µM.
The matching figures for `CCCNC(=O)Nc1ccc(I)cc1` [Compound 3]: 197 to 199 °C, 81.3 µM, 82.7 µM, 94.9 µM and 51.9 µM.
`CC(C)(C)c1cccc(NC(=S)NC2CC2)c1` [Compound 100] registered a melting point of 125 to 140 °C. This molecule also gave a half-maximal inhibitory concentration (IC50) in data set [1] (Table 8) above 100 µM. Further, the midpoint of inhibition in data set [2] (Table 8), the IC50, lay at 70 µM. This molecule registered a concentration for half-maximal inhibition (IC50) in data set [3] (Table 8) above 100 µM. This molecule also registered an IC50 in data set [4] (Table 8) of 75.7 µM.
In the case of `CC(C)(C)c1cccc(NC(=S)NC2CCCC2)c1` [Compound 91], the melting point lay within 170 to 180 °C. This molecule returned an IC50 in data set [1] (Table 8) of 16.3 µM. Also, half-maximal inhibition in data set [2] (Table 8) (IC50) required 19.4 µM. Also, half-maximal inhibition in data set [3] (Table 8) (IC50) was put at 31.8 µM. The molecule also registered a 50% inhibitory concentration (IC50) in data set [4] (Table 8) of 21 µM.
The molecule `CCCNC(=O)Nc1ccc(C2CCCCC2)cc1` [Compound 15] had a melting point of 166 to 168 °C. Half-maximal inhibition in data set [1] (Table 5) (IC50) required 59.1 µM. Besides, the IC50 in data set [2] (Table 5) was above 100 µM. The half-inhibitory concentration (IC50) in data set [3] (Table 5) was above 100 µM. The same molecule had an IC50 in data set [4] (Table 5) above 100 µM.
`S=C(Nc1cccc(I)c1)NC1CCCC1` [Compound 98] returned a melting point of 136 to 147 °C. This molecule registered a half-inhibitory concentration (IC50) in data set [1] (Table 8) of 16.4 µM. In data set [2] (Table 8), this molecule had a half-inhibitory concentration (IC50) of 21.9 µM. For the same molecule, it took 32.8 µM to reach half-maximal inhibition in data set [3] (Table 8) (IC50). Besides, half-maximal inhibition in data set [4] (Table 8) (IC50) was put at 23.4 µM.
For the molecule `CC(C)(C)NC(=O)Nc1ccc(C(C)(C)C)cc1` [Compound 8], the melting point was in the range of 167 to 174 °C. This molecule gave an IC50 in data set [1] (Table 5) of 14.5 µM. In addition, the concentration for half-maximal inhibition (IC50) in data set [2] (Table 5) worked out at 34.2 µM. In addition, in data set [3] (Table 5), the IC50 was 55 µM. The 50% inhibitory concentration (IC50) in data set [4] (Table 5) stood at 35.6 µM.
`O=C(Nc1cccc(C2CCCCC2)c1)NC1CC1` [Compound 67]: the melting point was 138 to 144 °C. Further, in data set [1] (Table 6), inhibition was half-maximal at 25 µM (IC50). In data set [2] (Table 6), this molecule gave an IC50 of 37 µM. In addition, half-maximal inhibition in data set [3] (Table 6) (IC50) was put at 17 µM. The 50% inhibitory concentration (IC50) in data set [4] (Table 6) stood at 26 µM.
In the case of `CCCNC(=O)Nc1cccc(C2CCCCC2)c1` [Compound 18], the melting point was in the range of 131 to 134 °C. The molecule also registered a concentration for half-maximal inhibition (IC50) in data set [1] (Table 5) of 23 µM. In data set [2] (Table 5), this molecule had a half-maximal inhibitory concentration (IC50) of 21 µM. Moreover, the IC50 in data set [3] (Table 5) was 32 µM. In data set [4] (Table 5), this molecule registered an IC50 of 24.1 µM.
In turn, `S=C(Nc1ccc(I)cc1)NC1CC1` [Compound 101] displayed a melting point of 166 to 180 °C. The same molecule came in with an IC50 in data set [1] (Table 8) above 100 µM. In data set [2] (Table 8), this molecule came in with a half-maximal inhibitory concentration (IC50) of 65.1 µM. The half-maximal inhibitory concentration (IC50) in data set [3] (Table 8) is above 100 µM. For the same molecule, half-maximal inhibition in data set [4] (Table 8) (IC50) was put at 63.3 µM.
The molecule `CC(C)(C)c1ccc(NC(=S)NC2CC2)cc1` [Compound 95] displayed a melting point of 119 to 143 °C. The IC50 in data set [1] (Table 8) was determined as 60 µM. The molecule further registered an IC50 in data set [2] (Table 8) of 57.9 µM. In data set [3] (Table 8), this molecule gave an IC50 of 94.5 µM. Besides, the half-inhibitory concentration (IC50) in data set [4] (Table 8) was 64.4 µM.
